Tests used:
[1] = tested on: crabgrass, large; assay: Test A pre-/postemergence herbicide test; assay type: in vivo, Digitaria sanguinalis
Outline: (§1)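 Planted in loam–sand blend; treated the same day preemergence by directed soil spray, while separately grown plants at one- to two-leaf stage got postemergence spray. Compared visually with untreated controls after approximately 10 days; 100 means complete control.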

[2] = tested on: barnyardgrass; assay: Test C flooded paddy test; assay type: in vivo, Echinochloa crus-galli; details: Flood
Excerpt: (§2) Plant species in the flooded paddy test consisted of rice (Oryza sativa), sedge, umbrella (small-flower umbrella sedge, Cyperus difformis), ducksalad (Heteranthera limosa), and barnyardgrass (Echinochloa crus-galli) grown to the 2-leaf stage for testing. At time of treatment, test pots were flooded to 3 cm above the soil surface, treated by application of test compounds directly to the paddy water, and then maintained at that water depth for the duration of the test. Treated plants and controls were maintained in a greenhouse for 13 to 15 days, after which time all species were compared to controls and visually evaluated. Plant response ratings, summarized in Table C, are based on a scale of 0 to 100 where 0 is no effect and 100 is complete control. A dash (-) response means no test result.

[3] = tested on: pigweed; assay: Test A pre-/postemergence herbicide test; assay type: in vivo, Amaranthus retroflexus
Outline: as §1

[4] = tested on: sedge, umbrella; assay: Test C flooded paddy test; assay type: in vivo, Cyperus difformis; details: Flood
Outline: (§3)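 2-leaf stage; flood 3 cm over soil; compound into paddy water; depth held; greenhouse 13–15 d; visual % control vs untreated (0 = none, 100 = complete); "-" = not tested.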

[5] = tested on: rice; assay: Test C flooded paddy test; assay type: in vivo, Oryza sativa; details: Flood
Excerpt: as §2

[6] = tested on: ducksalad; assay: Test C flooded paddy test; assay type: in vivo, Heteranthera limosa; details: Flood
Outline: as §3

[7] = tested on: corn; assay: Test A pre-/postemergence herbicide test; assay type: in vivo, Zea mays
Outline: as §1

[8] = tested on: barnyardgrass; assay: Test A pre-/postemergence herbicide test; assay type: in vivo, Echinochloa crus-galli
Outline: as §1

[9] = tested on: giant foxtail; assay: Test A pre-/postemergence herbicide test; assay type: in vivo, Setaria faberii; details: for Plant response rating, Foxtail, Giant: 0 to 100 scale
Outline: as §1

[10] = tested on: morningglory; assay: Test A pre-/postemergence herbicide test; assay type: in vivo, Ipomoea spp.
Outline: as §1

[11] = tested on: wheat; assay: Test A pre-/postemergence herbicide test; assay type: in vivo, Triticum aestivum
Outline: as §1

[12] = tested on: velvetleaf; assay: Test A pre-/postemergence herbicide test; assay type: in vivo, Abutilon theophrasti
Outline: as §1

[13] = 125 g ai/ha, visual rating, 0 to 100 scale, 0 no effect, 100 complete control, approximately 10 days, preemergence
[14] = Postemergence, 125 g ai/ha, 0 to 100 scale, 0 is no effect, 100 is complete control
[15] = preemergence, 500 g ai/ha, 0 to 100 scale, 0 is no effect and 100 is complete control
[16] = 125 g ai/ha, scale of 0 to 100 where 0 is no effect and 100 is complete control, 13 to 15 days
[17] = 250 g ai/ha, scale of 0 to 100 where 0 is no effect and 100 is complete control, 13 to 15 days
[18] = Postemergence, 125 g ai/ha, 0 to 100 scale, 0 no effect, 100 complete control
[19] = Postemergence, 500 g ai/ha, 0 to 100 scale (0 no effect, 100 complete control)
[20] = Preemergence, 125 g ai/ha, visual rating on 0 to 100 scale (0 no effect, 100 complete control)
[21] = preemergence, 500 g ai/ha, 0 to 100 scale
[22] = 31 g ai/ha, scale of 0 to 100 where 0 is no effect and 100 is complete control, 13 to 15 days
[23] = 62 g ai/ha, scale of 0 to 100 where 0 is no effect and 100 is complete control, 13 to 15 days

O=C1NCC(c2cccc(C(F)(F)F)c2)C1C(=O)Nc1ccccc1Br (racemic) [Compound 190]
Plant response rating, Crabgrass, Large [1, 13]: 90 | Plant response rating, Crabgrass, Large [1, 14]: 70 | Crabgrass, Large plant response rating (0 to 100 scale, 0 is no effect, 100 is complete control) ([1]; Postemergence, 500 g ai/ha): 90 | Plant response rating, Crabgrass, Large [1, 15]: 90 | Plant response rating, Barnyardgrass [2, 16]: 10 | Plant response rating, Barnyardgrass [2, 17]: 25 | Plant response rating, Barnyardgrass ([2]; 500 g ai/ha, scale 0 to 100): 50 | Plant response rating, Barnyardgrass ([2]; 1000 g ai/ha, scale 0 to 100): 65 | Plant response rating, Pigweed [3, 13]: 0 | Plant response rating, Pigweed [3, 14]: 0 | Pigweed plant response rating (0 to 100 scale, 0 is no effect, 100 is complete control) ([3]; Postemergence, 500 g ai/ha): 0 | Plant response rating, Pigweed [3, 15]: 0 | Plant response rating, Sedge, Umbrella [4, 16]: 0 | Plant response rating, Sedge, Umbrella [4, 17]: 0 | Plant response rating, Sedge, Umbrella ([4]; 500 g ai/ha, scale 0 to 100): 0 | Plant response rating, Sedge, Umbrella ([4]; 1000 g ai/ha, scale 0 to 100): 0 | Plant response rating, Rice [5, 16]: 0 | Plant response rating, Rice [5, 17]: 0 | Plant response rating, Rice ([5]; 500 g ai/ha, scale 0 to 100): 0 | Plant response rating, Rice ([5]; 1000 g ai/ha, scale 0 to 100): 15 | Plant response rating, Ducksalad [6, 16]: 50 | Plant response rating, Ducksalad [6, 17]: 75 | Plant response rating, Ducksalad ([6]; 500 g ai/ha, scale 0 to 100): 85 | Plant response rating, Ducksalad ([6]; 1000 g ai/ha, scale 0 to 100): 100 | Plant response rating, Corn [7, 13]: 0 | Plant response rating, Corn [7, 14]: 0 | Corn plant response rating (0 to 100 scale, 0 is no effect, 100 is complete control) ([7]; Postemergence, 500 g ai/ha): 40 | Plant response rating, Corn [7, 15]: 0 | Plant response rating, Barnyardgrass [8, 13]: 60 | Plant response rating, Barnyardgrass [8, 14]: 70 | Barnyardgrass plant response rating (0 to 100 scale, 0 is no effect, 100 is complete control) ([8]; Postemergence, 500 g ai/ha): 90 | Plant response rating, Barnyardgrass [8, 15]: 90 | Plant response rating, Foxtail, Giant ([9]; 125 g ai/ha, visual rating, 0 no effect, 100 complete control, approximately 10 days, preemergence): 80 | Plant response rating, Foxtail, Giant ([9]; Postemergence, 125 g ai/ha, 0 is no effect, 100 is complete control): 70 | Foxtail, Giant plant response rating (0 to 100 scale, 0 is no effect, 100 is complete control) ([9]; Postemergence, 500 g ai/ha): 80 | Plant response rating, Foxtail, Giant ([9]; preemergence, 500 g ai/ha, 0 is no effect and 100 is complete control): 90 | Plant response rating, Morningglory [10, 13]: 0 | Plant response rating, Morningglory [10, 14]: 0 | Morningglory plant response rating (0 to 100 scale, 0 is no effect, 100 is complete control) ([10]; Postemergence, 500 g ai/ha): 10 | Plant response rating, Morningglory [10, 15]: 0 | Plant response rating, Wheat [11, 13]: 0 | Plant response rating, Wheat [11, 14]: 0 | Wheat plant response rating (0 to 100 scale, 0 is no effect, 100 is complete control) ([11]; Postemergence, 500 g ai/ha): 0 | Plant response rating, Wheat [11, 15]: 30 | Plant response rating, Velvetleaf [12, 13]: 0 | Plant response rating, Velvetleaf [12, 14]: 0 | Velvetleaf plant response rating (0 to 100 scale, 0 is no effect, 100 is complete control) ([12]; Postemergence, 500 g ai/ha): 10 | Plant response rating, Velvetleaf [12, 15]: 0

CC1(C)NC(=O)C(C(=O)Nc2ccccc2F)C1c1ccc(F)c(F)c1 (centres unmarked) [Compound 11]
Plant response rating, Crabgrass, Large [1, 18]: 0 | Plant response rating, Crabgrass, Large [1, 19]: 50 | Crabgrass, Large plant response rating [1, 20]: 70 | Plant response rating, Crabgrass, Large [1, 21]: 90 | Plant response rating, Barnyardgrass [2, 22]: 0 | Plant response rating, Barnyardgrass [2, 23]: 0 | Plant response rating, Barnyardgrass [2, 16]: 0 | Plant response rating, Barnyardgrass ([2]; 250 g ai/ha, scale 0 to 100): 0 | Plant response rating, Pigweed [3, 18]: 0 | Plant response rating, Pigweed [3, 19]: 0 | Pigweed plant response rating [3, 20]: 0 | Plant response rating, Pigweed [3, 21]: 0 | Plant response rating, Sedge, Umbrella [4, 22]: 0 | Plant response rating, Sedge, Umbrella [4, 23]: 0 | Plant response rating, Sedge, Umbrella [4, 16]: 0 | Plant response rating, Sedge, Umbrella ([4]; 250 g ai/ha, scale 0 to 100): 0 | Plant response rating, Rice [5, 22]: 0 | Plant response rating, Rice [5, 23]: 0 | Plant response rating, Rice [5, 16]: 0 | Plant response rating, Rice ([5]; 250 g ai/ha, scale 0 to 100): 0 | Plant response rating, Ducksalad [6, 22]: 0 | Plant response rating, Ducksalad [6, 23]: 0 | Plant response rating, Ducksalad [6, 16]: 0 | Plant response rating, Ducksalad ([6]; 250 g ai/ha, scale 0 to 100): 0 | Plant response rating, Corn [7, 18]: 0 | Plant response rating, Corn [7, 19]: 0 | Corn plant response rating [7, 20]: 0 | Plant response rating, Corn [7, 21]: 0 | Plant response rating, Barnyardgrass [8, 18]: 0 | Plant response rating, Barnyardgrass [8, 19]: 50 | Barnyardgrass plant response rating [8, 20]: 0 | Plant response rating, Barnyardgrass ([8]; preemergence, 500 g ai/ha, 0 to 100 scale (0 no effect, 100 complete control)): 20 | Plant response rating, Foxtail, Giant ([9]; Postemergence, 125 g ai/ha, 0 no effect, 100 complete control): 0 | Foxtail, Giant plant response rating [9, 20]: 20 | Plant response rating, Foxtail, Giant ([9]; preemergence, 500 g ai/ha): 50 | Plant response rating, Morningglory [10, 18]: 0 | Plant response rating, Morningglory [10, 19]: 0 | Morningglory plant response rating [10, 20]: 0 | Plant response rating, Morningglory [10, 21]: 0 | Plant response rating, Wheat [11, 18]: 0 | Plant response rating, Wheat [11, 19]: 0 | Wheat plant response rating [11, 20]: 0 | Plant response rating, Wheat [11, 21]: 0 | Plant response rating, Velvetleaf [12, 18]: 0 | Plant response rating, Velvetleaf [12, 19]: 0 | Velvetleaf plant response rating [12, 20]: 0 | Plant response rating, Velvetleaf [12, 21]: 0

From patent publication US10294202B2, “Pyrrolidinones as herbicides” (FMC Corporation, priority 2013, dated 2019)
